The source of these data is article PMC7702303, “Biochemical and transcript level differences between the three human phosphofructokinases show optimisation of each isoform for specific metabolic niches” (Biochemical Journal, 2020).

For one test, the target named is T1, recombinant human PFK-L (Homo sapiens, UniProt P17858).
T1 construct: made in house; host or cells: PFK-deficient Saccharomyces cerevisiae
T1 sequence (P17858 1-780): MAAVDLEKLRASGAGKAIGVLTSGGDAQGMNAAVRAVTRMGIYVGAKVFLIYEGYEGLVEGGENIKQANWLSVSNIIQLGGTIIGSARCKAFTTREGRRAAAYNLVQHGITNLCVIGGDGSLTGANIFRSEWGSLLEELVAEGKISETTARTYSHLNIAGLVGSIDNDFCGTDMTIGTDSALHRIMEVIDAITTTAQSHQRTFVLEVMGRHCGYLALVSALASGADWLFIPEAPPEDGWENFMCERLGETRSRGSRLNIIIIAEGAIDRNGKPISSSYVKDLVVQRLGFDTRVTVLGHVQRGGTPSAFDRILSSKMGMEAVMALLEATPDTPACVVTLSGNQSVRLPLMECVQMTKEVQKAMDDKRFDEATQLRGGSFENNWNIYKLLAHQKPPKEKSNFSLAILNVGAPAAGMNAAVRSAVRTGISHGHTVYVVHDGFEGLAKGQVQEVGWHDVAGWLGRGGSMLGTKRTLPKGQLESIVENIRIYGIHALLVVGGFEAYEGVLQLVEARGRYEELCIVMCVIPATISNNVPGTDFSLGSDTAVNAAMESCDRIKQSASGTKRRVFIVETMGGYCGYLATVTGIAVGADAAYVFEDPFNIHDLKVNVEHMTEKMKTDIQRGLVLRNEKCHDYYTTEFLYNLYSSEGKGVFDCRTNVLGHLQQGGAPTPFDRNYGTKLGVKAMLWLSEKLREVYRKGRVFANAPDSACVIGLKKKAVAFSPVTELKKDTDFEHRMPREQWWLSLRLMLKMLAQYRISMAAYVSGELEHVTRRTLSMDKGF
Nature of the test: ALDO-TIM-G3PDH enzyme-linked kinetic assay, PFK-L. The note with it: for K0.5F6P + modulator / VmaxF6P + modulator: ATP 0.5mM; for K0.5F6P + modulator / VmaxF6P + modulator / K0.5ATP + modulator / VmaxATP + modulator: N=3, mean (SD); for K0.5ATP + modulator / VmaxATP + modulator: F6P 4mM. It is filed as biochemical. The procedure:
(§1) Recombinant human PFKs were expressed in PFK-deficient Saccharomyces cerevisiae and purified using the methods described previously, adapting earlier materials and protocols. Production of PFK intended for use in ATP titration experiments used 1 mM F6P as a tetramer stabilising agent in protein purification and storage buffers. Production of PFK intended for use in F6P titration experiments used 1 mM ATP as a tetramer stabilising agent in protein purification and storage buffers. Experimental details on the purification and characterisation procedures including figures showing SDS–PAGE gels of the highly pure PFKs used in the kinetic experiments described in this work have been recently published.
(§2) Assay buffer consisted of 50 mM TEA, 100 mM KCl, 10 mM MgCl2, 1 mM Tris(2-carboxyethyl)phosphine hydrochloride (TCEP), 10% glycerol, pH 7.4. Assay mix consisted of 5 units/ml glycerol-3-phosphate dehydrogenase (G3PDH, Sigma–Aldrich G6880), 2.5 units/ml aldolase (Sigma–Aldrich A2714), 25 units/ml triosephosphate isomerase (TIM, Sigma–Aldrich T6258), and 1.25 mM NADH. ATP and F6P were obtained from Sigma–Aldrich (A2383 and F3627, respectively). For ATP titrations, 38 µl of buffer or ligand were added to a clear non-binding 96-well plate. 40 µl of assay mix containing 10 mM F6P (final concentration 4 mM) was added and the plate was incubated at 25°C for 5 min. An amount of 2 µl of PFK isoforms were added to each well from stock concentrations of 150 µg/ml and the reaction was immediately started with 20 µl of ATP at varying concentrations. For F6P titrations, 30 µl of buffer or ligand was added to a clear non-binding 96-well plate. An amount of 40 µl of assay mix containing 1.25 mM ATP (final concentration 0.5 mM) was added and the plate was incubated at 25°C for 5 min. An amount of 5 µl of PFK isoforms were added to each well from stock concentrations of 200 µg/ml and the reaction was immediately started with 20 µl F6P at varying concentrations. All ligands and substrates (including ATP) were used at pH 7.4. All metabolites were obtained from Sigma–Aldrich unless otherwise stated. […] A SpectraMax M5 Multi-Mode Microplate Reader was used to measure A340nm at 13 s intervals for 10 min. All experiments were performed in triplicate unless otherwise stated.
(§3) Time-dependent absorbance change was converted into rate of NADH oxidation (µM s^−1) or specific activity (µmol min^−1 mg protein^−1) using the Beer-Lambert law (molar extinction coefficient of NADH 6.22 mM^−1 cm^−1). The initial rate of reaction was used to avoid accumulation of ADP, which activates PFK, interfering with the determination of kinetic properties. Non-linear regression analysis was performed on substrate titration data using GraphPad Prism 7, with curves fitted using allosteric sigmoidal models, enabling determination of steady-state kinetic values.

For the next test, the target named is T2, recombinant human PFK-P (Homo sapiens, UniProt Q01813).
T2 construct: made in house; host or cells: PFK-deficient Saccharomyces cerevisiae
T2 sequence (Q01813 1-784): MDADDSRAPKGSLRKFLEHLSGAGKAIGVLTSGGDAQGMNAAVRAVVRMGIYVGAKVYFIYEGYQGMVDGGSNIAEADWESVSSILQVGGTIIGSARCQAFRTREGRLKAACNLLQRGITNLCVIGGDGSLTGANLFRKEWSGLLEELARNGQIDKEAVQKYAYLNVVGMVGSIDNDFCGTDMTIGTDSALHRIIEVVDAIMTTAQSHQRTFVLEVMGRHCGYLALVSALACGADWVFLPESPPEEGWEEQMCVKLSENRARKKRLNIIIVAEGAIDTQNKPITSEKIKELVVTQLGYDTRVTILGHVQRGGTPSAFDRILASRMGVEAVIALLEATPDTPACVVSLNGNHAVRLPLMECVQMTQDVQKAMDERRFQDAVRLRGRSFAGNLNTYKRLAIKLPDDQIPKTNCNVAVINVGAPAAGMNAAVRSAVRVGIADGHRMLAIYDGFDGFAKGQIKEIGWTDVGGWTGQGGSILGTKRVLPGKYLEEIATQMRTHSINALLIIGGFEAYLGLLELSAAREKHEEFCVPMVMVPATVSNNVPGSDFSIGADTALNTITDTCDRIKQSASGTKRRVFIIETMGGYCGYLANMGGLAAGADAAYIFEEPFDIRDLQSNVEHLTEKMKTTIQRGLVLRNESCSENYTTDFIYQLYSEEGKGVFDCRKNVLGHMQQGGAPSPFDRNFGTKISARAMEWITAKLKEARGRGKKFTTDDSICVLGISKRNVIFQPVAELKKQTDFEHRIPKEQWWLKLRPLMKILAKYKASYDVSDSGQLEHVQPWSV
The test can be described thus: ALDO-TIM-G3PDH enzyme-linked kinetic assay, PFK-P. The format is biochemical. The note with it: for K0.5F6P + modulator / VmaxF6P + modulator: ATP 0.5mM; for K0.5F6P + modulator / VmaxF6P + modulator / K0.5ATP + modulator / VmaxATP + modulator: N=3, mean (SD); for K0.5ATP + modulator / VmaxATP + modulator: F6P 4mM. The procedure:
as §1, §2, §3

The subject of the next test is PFKP. Conditions: cited from earlier work.
The mark [1] stands for this setting: ref Sanchez-Martinez et al., 2000.

What is called Ki is a dissociation constant, usually derived from enzyme kinetics or from competition with a known ligand. For orientation: AC50 means the concentration at which the activity in the assay is half-maximal.

Where two headings read alike, the source gives them in different places.

`Nc1ncnc2c1ncn2[C@@H]1O[C@H](COP(=O)(O)O)[C@@H](O)[C@H]1O` [AMP]: the “decrease in K0.5^F6P by AMP” value on recombinant human PFK-L (PFK-L, F6P titration) was “more than 5 fold”. For the same compound, at recombinant human PFK-L (PFK-L, modulator 1200 µM), the “change in kcat^ATP/K0.5^ATP compared with control PFK without modulator” value was “+9%”, the “change in kcat^F6P/K0.5^F6P compared with control PFK without modulator” value was “+766%”, the “K0.5F6P + modulator” value is 260.6 (8.2) M and the “VmaxF6P + modulator” value is listed as 5.68 (0.06) moles/min/mg. Moreover, at recombinant human PFK-L (PFK-L, modulator 1200 µM), the “K0.5ATP + modulator” value is on record as 156.9 (17.6) M and the “VmaxATP + modulator” value is recorded as 44.45 (1.74) moles/min/mg. On recombinant human PFK-P (F6P titration), the “decrease in K0.5^F6P by AMP” value was “two-fold decrease”. Further, at recombinant human PFK-P (modulator 1200 µM), the “change in kcat^ATP/K0.5^ATP compared with control PFK without modulator” value was “+220%”, the “change in kcat^F6P/K0.5^F6P compared with control PFK without modulator” value is given as “+162%”, the “K0.5F6P + modulator” value was 607.0 (31.0) M and the “VmaxF6P + modulator” value is on record as 2.13 (0.06) moles/min/mg. For the same compound, at recombinant human PFK-P (modulator 1200 µM), the “K0.5ATP + modulator” value is given as 94.4 (10.8) M and the “VmaxATP + modulator” value is on record as 28.38 (1.07) moles/min/mg. Moreover, in the test on PFKP (ref Foe and Kemp, 1985), the IC50 or AC50 (activator) is 75 µM. In addition, the IC50 or AC50 (activator) in the test with PFKP (setting [1]) is 8 µM.

Turning to `C=C(OP(=O)(O)O)C(=O)O` [PEP, phosphoenolpyruvate], on recombinant human PFK-L (PFK-L, modulator 1100 µM), the “change in kcat^ATP/K0.5^ATP compared with control PFK without modulator” value is on record as “+1%”, the “change in kcat^F6P/K0.5^F6P compared with control PFK without modulator” value was “+92%”, the “K0.5F6P + modulator” value was 952.8 (137.7) M and the “VmaxF6P + modulator” value is listed as 5.36 (0.49) moles/min/mg. Further, on recombinant human PFK-L (PFK-L, modulator 1100 µM), the “K0.5ATP + modulator” value is 148.7 (18.6) M and the “VmaxATP + modulator” value is 34.91 (1.59) moles/min/mg. Moreover, at recombinant human PFK-P (modulator 1100 µM), the “change in kcat^ATP/K0.5^ATP compared with control PFK without modulator” value is listed as −40%, the “change in kcat^F6P/K0.5^F6P compared with control PFK without modulator” value is reported as “+9%”, the “K0.5F6P + modulator” value was 1378 (96) M and the “VmaxF6P + modulator” value was 0.81 (0.04) moles/min/mg. On recombinant human PFK-P (modulator 1100 µM), the “K0.5ATP + modulator” value is 352.3 (133.2) M and the “VmaxATP + modulator” value is on record as 23.07 (2.40) moles/min/mg. Further, the Ki at PFKP (setting [1]) is 2780 µM.

`O=P(O)(O)OC[C@H]1O[C@@](CO)(OP(=O)(O)O)[C@@H](O)[C@@H]1O` [F26BP, fructose 2,6-bisphosphate]: the “effect on PFK activity, in words” value on recombinant human PFK-L (PFK-L) and on recombinant human PFK-P was “strongly activated” throughout. The “decrease in AC50^F26BP for PFK-L compared with PFK-P” value at recombinant human PFK-L (PFK-L vs PFK-P) is greater than 50 fold. Further, the “allosteric constant K0.5^ATP+F26BP/K0.5^ATP” value at recombinant human PFK-L (PFK-L, ATP titration) is 0.92; at recombinant human PFK-P (ATP titration), 0.54. Moreover, the half-maximal activity concentration (AC50) came to 0.17 µM at recombinant human PFK-L (PFK-L, activation, read-out: AC50^F26BP) and 9.13 µM on recombinant human PFK-P (activation, read-out: AC50^F26BP). The “change in kcat^ATP/K0.5^ATP compared with control PFK without modulator” value at recombinant human PFK-L (PFK-L, modulator 10 µM) is recorded as “+6.5%”; on recombinant human PFK-P (modulator 10 µM), “+88%”. For the same compound, the “change in kcat^F6P/K0.5^F6P compared with control PFK without modulator” value at recombinant human PFK-L (PFK-L, modulator 10 µM) is on record as “+148%”; on recombinant human PFK-P (modulator 10 µM) it was “+111%”. The “K0.5F6P + modulator” value is 698 (105) M at recombinant human PFK-L (PFK-L, modulator 10 µM) and 2143 (132) M on recombinant human PFK-P (modulator 10 µM). For the same compound, the “VmaxF6P + modulator” value at recombinant human PFK-L (PFK-L, modulator 10 µM) is reported as 5.07 (0.41) moles/min/mg; on recombinant human PFK-P (modulator 10 µM), 2.45 (0.18) moles/min/mg. For the same compound, the “K0.5ATP + modulator” value on recombinant human PFK-L (PFK-L, modulator 10 µM) was 139.4 (12.3) M; on recombinant human PFK-P (modulator 10 µM) it was 176.8 (33.8) M. In addition, the “VmaxATP + modulator” value on recombinant human PFK-L (PFK-L, modulator 10 µM) is given as 38.57 (1.23) moles/min/mg; at recombinant human PFK-P (modulator 10 µM), 31.26 (1.96) moles/min/mg. The IC50 or AC50 (activator) with PFKP (ref Foe and Kemp, 1985) was 4.5 µM; in the test on PFKP (unit inferred, ref Vora 1985) it was 100 µM. For the same compound, the EC50 in the test with PFKP (ref Sanchez-Martinez et al., 2000, read-out: Kact) was 2.2 µM.
